Measured values taken from patent publication US20070184481A1, “Assay For Transcriptionally Active Methylated Promoters” (UNIVERSITY OF SOUTH FLORIDA, priority 2005, published 2007).

Test system: HLA-DRA mRNA in RFX-negative cell lines
Settings: two RFX-negative suspension B-cell lines, 5 uM Azacytidine for 72 hours, RT-PCR 40 cycles, agarose gel detection
Method: Suspension B-cell lines were seeded at 10^5 cells per ml in 20 ml volume of media. […] Total RNA was prepared as described, and 5 ug of RNA were used in a standard reverse transcriptase, polymerase chain reaction (RT-PCR) for HLA-DRA mRNA and for γ-actin mRNA. PCR was performed for 40 cycles and the PCR products detected by 2.2% agarose gel electrophoresis.

Structure (SMILES): Nc1ncn([C@@H]2O[C@H](CO)[C@@H](O)[C@H]2O)c(=O)n1 [AzaC, Azacytidine]
- HLA-DRA mRNA production compared to untreated cells: increase in HLA-DRA mRNA production
